Source: patent US10603298B2, “Succinate dehydrogenase inhibitors (SDHi's)” (Medical Research Council, priority 2014, dated 2020)

Tests used:
[1] = tested on: mouse heart IR injury (myocardial infarction); test: In vivo mouse cardiac IR injury (LAD ligation), infarct size by triphenyltetrazolium chloride staining; details: i.v. infusion 4 mg/kg/min prior to and throughout ischaemia
Experimental: For the in vivo heart IR model an open-chest, in situ heart model was used^31,32. Male mice (8-10 weeks; Charles River Laboratories, UK) were anaesthetised with sodium pentobarbital (70 mg/kg intraperitoneally (i.p.)), intubated endotracheally and ventilated with 3 cm H2O positive-end expiratory pressure. Adequacy of anaesthesia was monitored using corneal and withdrawal reflexes. Ventilation frequency was kept at 110 breaths per minute with tidal volume between 125-150 μL. A thoracotomy was performed and the heart exposed by stripping the pericardium. A prominent branch of the left anterior descending coronary artery (LAD) was surrounded by a 7-0 Prolene suture that was then passed through a small plastic tube. Ischaemia was induced by tightening the tubing against the heart surface. To assess metabolites during IR in vivo, mice were divided into three groups: 30 min ischaemia, 30 min ischaemia plus 5 min reperfusion and 30 min sham-operation in which the suture was placed but the LAD was not occluded. At the end of each protocol tissue was removed from the at risk and peripheral areas of the heart, selected visually by comparing white versus red tissue, and snap-frozen in liquid nitrogen. […] Infarct size was assessed after 30 min of ischaemia followed by 120 min reperfusion using 2% triphenyltetrazolium chloride staining and is expressed as a percentage of the risk zone^33. […]

[2] = tested on: succinate accumulation in the ischaemic myocardium; test: Succinate accumulation in the ischaemic myocardium in vivo (LC-MS); details: i.v. infusion in vivo, mouse; 30 min ischaemia
Experimental: For the in vivo heart IR model an open-chest, in situ heart model was used^31,32. Male mice (8-10 weeks; Charles River Laboratories, UK) were anaesthetised with sodium pentobarbital (70 mg/kg intraperitoneally (i.p.)), intubated endotracheally and ventilated with 3 cm H2O positive-end expiratory pressure. Adequacy of anaesthesia was monitored using corneal and withdrawal reflexes. Ventilation frequency was kept at 110 breaths per minute with tidal volume between 125-150 μL. A thoracotomy was performed and the heart exposed by stripping the pericardium. A prominent branch of the left anterior descending coronary artery (LAD) was surrounded by a 7-0 Prolene suture that was then passed through a small plastic tube. Ischaemia was induced by tightening the tubing against the heart surface. To assess metabolites during IR in vivo, mice were divided into three groups: 30 min ischaemia, 30 min ischaemia plus 5 min reperfusion and 30 min sham-operation in which the suture was placed but the LAD was not occluded. At the end of each protocol tissue was removed from the at risk and peripheral areas of the heart, selected visually by comparing white versus red tissue, and snap-frozen in liquid nitrogen. Sham-operated tissue was removed from the presumed risk zone. Infarct size was assessed after 30 min of ischaemia followed by 120 min reperfusion using 2% triphenyltetrazolium chloride staining and is expressed as a percentage of the risk zone^33. […] For the LC separation, column A was Sequant Zic-Hilic (150 mm×4.6 mm, internal diameter 3.5 μm) with a guard column (20 mm×2.1 mm 3.5 μm) from HiChrom, Reading, UK. […] (150 mm×2.1 mm i.d. 3.5 μm) with guard column (20 mm×2.1 mm i.d. […]) from HiChrom, Reading, UK. […] Spectra were analysed using both targeted and untargeted approaches. For the targeted approach spectra were analysed using XCalibur Qual Browser and XCalibur Quan Browser softwares (Thermo Scientific) by referencing to an internal library of compounds. […] The arrays of spectra were then statistically analysed using the functions explore.data and univariate of the R package mum a^40.

[3] = Malonate level in the ischaemic myocardium after i.v. dimethyl malonate (LC-MS); parameters: species or system mouse; details: intravenous infusion of dimethyl malonate in vivo
Experimental: In addition, as shown in FIG. 5a the cell permeability of the compound may be determined by comparing the level of the compound in an untreated cell with that of a treated cell. Typically, the level of the compound may be determined using LC/MS as detailed in the metabolomic analysis in the Examples.
Infarct size was assessed after 30 min of ischaemia followed by 120 min reperfusion using 2% triphenyltetrazolium chloride staining and is expressed as a percentage of the risk zone^33. […] Control mice were infused with sterile saline. The total volume administered never exceeded 200 μL/mouse.
Equal amounts wet weight murine tissue were lysed in 250 μL extraction solution (ES; 30% acetonitrile, 50% methanol and 20% water) per 10 mg tissue in Precellysis 24 vials, following the manufacturer's instructions. […] For the LC separation, column A was Sequant Zic-Hilic (150 mm×4.6 mm, internal diameter 3.5 μm) with a guard column (20 mm×2.1 mm 3.5 μm) from HiChrom, Reading, UK. […] Gradient: 0-3 min 80% B, 25 min 20% B, 26 min 80% B, 36 min 80% B. Column B was sequant Zic-pHilic (150 mm×2.1 mm i.d. 3.5 μm) with guard column (20 mm×2.1 mm i.d. […]) from HiChrom, Reading, UK. […] Spectra were analysed using both targeted and untargeted approaches. […] The arrays of spectra were then statistically analysed using the functions explore.data and univariate of the R package mum a^40.

[4] = administered orally; cited from earlier work

COC(=O)CC(=O)OC [dimethyl malonate]
protection against cardiac IR injury (infarct size) [1]: protective | succinate accumulation in the ischaemic myocardium [2]: strikingly decreased succinate accumulation | accumulation of malonate in the ischaemic myocardium [3]: results in accumulation of malonate | LD50 [4]: approximately 5 gms per kilogram
